According to ChEMBL document CHEMBL1201862, “PubChem BioAssay data set” (2004):
Calls of active or inactive are those of the source.

How the values were obtained:
Estrogen receptor = Estrogen receptor (Homo sapiens, UniProt P03372);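 note: potency for inhibiting coactivator peptide recruitment to the receptor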
NADPH oxidase 1 = NADPH oxidase 1 (Homo sapiens, UniProt Q9Y5S8); assay: Luminescence-based cell-based dose response assay to identify inhibitors of NADPH oxidase 1 (NOX1).; type: functional
NADPH oxidase 1, sequence (Q9Y5S8 whole entry): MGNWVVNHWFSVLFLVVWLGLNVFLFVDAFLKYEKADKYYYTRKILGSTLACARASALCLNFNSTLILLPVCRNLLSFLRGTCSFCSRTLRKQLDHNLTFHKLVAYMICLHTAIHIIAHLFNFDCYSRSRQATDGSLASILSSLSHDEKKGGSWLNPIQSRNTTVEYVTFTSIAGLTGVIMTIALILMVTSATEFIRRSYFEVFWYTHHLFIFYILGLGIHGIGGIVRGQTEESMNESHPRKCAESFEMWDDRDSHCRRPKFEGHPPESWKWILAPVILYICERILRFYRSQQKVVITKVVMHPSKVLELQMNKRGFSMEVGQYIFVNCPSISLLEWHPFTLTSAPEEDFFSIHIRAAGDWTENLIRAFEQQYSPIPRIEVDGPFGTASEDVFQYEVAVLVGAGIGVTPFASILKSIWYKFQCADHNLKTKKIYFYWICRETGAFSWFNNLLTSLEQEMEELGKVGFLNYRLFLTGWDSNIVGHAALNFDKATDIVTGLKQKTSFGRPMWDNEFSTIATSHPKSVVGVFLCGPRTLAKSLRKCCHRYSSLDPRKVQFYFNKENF

[1] = viability loss in Vero cells – cytotoxicity control for Vif-APOBEC3G degradation inhibitor project, dose response (AID 1117358); type: functional; conditions: Vero
[2] = target: T1, Short transient receptor potential channel 4 (Mus musculus, UniProt Q9QUQ5); assay: block of DAMGO-driven TRPC4 calcium entry – cell-based, HEK293 TRPC4/mu-opioid, Fluo-4 calcium, dose response (AID 434942); type: functional;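 note: potency of inhibitors blocking the TRPC4 calcium response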
T1 sequence (Q9QUQ5 whole entry): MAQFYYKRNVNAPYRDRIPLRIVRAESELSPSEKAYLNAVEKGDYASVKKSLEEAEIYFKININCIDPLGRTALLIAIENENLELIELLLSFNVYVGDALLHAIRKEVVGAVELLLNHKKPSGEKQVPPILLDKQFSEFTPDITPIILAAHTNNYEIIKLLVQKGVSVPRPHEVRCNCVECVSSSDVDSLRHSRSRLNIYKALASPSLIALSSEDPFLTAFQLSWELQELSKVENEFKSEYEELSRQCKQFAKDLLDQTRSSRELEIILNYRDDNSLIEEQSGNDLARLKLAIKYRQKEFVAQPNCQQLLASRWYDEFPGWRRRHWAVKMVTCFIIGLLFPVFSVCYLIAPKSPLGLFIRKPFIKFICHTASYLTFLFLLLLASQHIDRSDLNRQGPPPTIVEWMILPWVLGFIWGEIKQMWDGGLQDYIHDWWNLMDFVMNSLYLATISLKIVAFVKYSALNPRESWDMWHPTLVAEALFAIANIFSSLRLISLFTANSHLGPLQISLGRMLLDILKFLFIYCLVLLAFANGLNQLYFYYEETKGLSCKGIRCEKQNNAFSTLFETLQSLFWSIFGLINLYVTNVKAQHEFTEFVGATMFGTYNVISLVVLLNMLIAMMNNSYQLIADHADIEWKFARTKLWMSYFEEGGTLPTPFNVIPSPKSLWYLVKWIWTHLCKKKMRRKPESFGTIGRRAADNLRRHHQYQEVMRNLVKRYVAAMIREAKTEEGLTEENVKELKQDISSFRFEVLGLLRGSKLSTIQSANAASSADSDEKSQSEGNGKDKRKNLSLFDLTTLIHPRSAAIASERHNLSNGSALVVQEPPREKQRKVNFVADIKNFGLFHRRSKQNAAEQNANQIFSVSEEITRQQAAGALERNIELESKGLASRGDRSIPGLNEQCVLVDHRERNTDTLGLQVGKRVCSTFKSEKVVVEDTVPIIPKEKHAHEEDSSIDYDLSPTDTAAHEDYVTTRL

[3] = OVCAR8 cell viability loss – plate reader, dry powder samples, PAX8 project, dose response (AID 743197); type: functional, cell-based; conditions: OVCAR-8
[4] = A2780 cell killing – plate reader, dry powder samples, cytotoxicity control, dose response (AID 743046); type: functional, cell-based
[5] = toxicity toward immortalized ovarian surface epithelium – cell-based, plate reader, dry powder samples, cytotoxicity control for PAX8 inhibitor project, dose response (AID 743045); type: functional
Paired box protein Pax-8 = Paired box protein Pax-8 (Homo sapiens, UniProt Q06710); assay: PAX8 transcriptional activity inhibition in RMG-I – RMG-I cells, luciferase, cherry-pick, dose response (AID 687027); type: functional, cell-based;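 note: luciferase reporter driven by Pax8 target thyroperoxidase promoter measured by SteadyGlo luminescence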
Paired box protein Pax-8, sequence (Q06710 whole entry): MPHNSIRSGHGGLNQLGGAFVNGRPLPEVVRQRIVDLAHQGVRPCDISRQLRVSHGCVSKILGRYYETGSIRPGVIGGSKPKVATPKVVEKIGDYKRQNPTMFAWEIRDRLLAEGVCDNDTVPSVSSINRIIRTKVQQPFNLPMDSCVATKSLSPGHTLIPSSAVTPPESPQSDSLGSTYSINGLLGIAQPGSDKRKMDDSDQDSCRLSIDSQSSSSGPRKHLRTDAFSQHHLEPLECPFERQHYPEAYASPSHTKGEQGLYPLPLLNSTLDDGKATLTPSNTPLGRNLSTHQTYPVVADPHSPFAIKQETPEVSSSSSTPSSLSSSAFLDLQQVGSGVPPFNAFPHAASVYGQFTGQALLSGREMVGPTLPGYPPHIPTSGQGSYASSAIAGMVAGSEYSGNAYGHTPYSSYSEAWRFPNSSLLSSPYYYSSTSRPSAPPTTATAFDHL

[6] = OVCAR-3 cell viability loss – plate reader, dry powder samples, PAX8 inhibitor project, dose response (AID 743044); type: functional, cell-based
[7] = IGROV1 cell killing – plate reader, dry powder samples, PAX8 inhibitor project, dose response (AID 743043); type: functional, cell-based; conditions: IGROV-1
[8] = target: T2, Zinc finger protein mex-5 (Caenorhabditis elegans, UniProt Q9XUB2); assay: potency of MEX-5 RNA-binding blockers – biochemical, C. elegans, fluorescence polarization, dose response (AID 1960)
T2 sequence (Q9XUB2 whole entry): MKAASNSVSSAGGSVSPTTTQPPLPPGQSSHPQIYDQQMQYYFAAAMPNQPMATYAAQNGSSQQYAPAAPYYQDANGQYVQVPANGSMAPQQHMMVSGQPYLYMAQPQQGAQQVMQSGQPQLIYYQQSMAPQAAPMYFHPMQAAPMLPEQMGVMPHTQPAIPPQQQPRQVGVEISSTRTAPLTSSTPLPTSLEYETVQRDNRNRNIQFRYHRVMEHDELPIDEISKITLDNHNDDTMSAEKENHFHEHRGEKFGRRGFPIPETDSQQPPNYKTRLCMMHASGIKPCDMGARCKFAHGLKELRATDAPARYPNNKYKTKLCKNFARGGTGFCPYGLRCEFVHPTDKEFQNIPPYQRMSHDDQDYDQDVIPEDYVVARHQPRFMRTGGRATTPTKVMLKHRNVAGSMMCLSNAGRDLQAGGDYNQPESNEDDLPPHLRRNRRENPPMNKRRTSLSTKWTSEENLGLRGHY

[9] = M. tuberculosis H37Rv growth inhibitors, H37Rv strain (AID 1626); type: functional
[10] = target: T3, RNA-binding protein pos-1 (Caenorhabditis elegans, UniProt G5EF15); assay: disruptors of C. elegans POS-1 RNA interaction – biochemical, fluorescence polarization, dose response (AID 1964);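 note: purified POS-1 fused to maltose binding protein made in E. coli; potency of compounds blocking POS-1 binding to fluorescent RNA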
T3 sequence (G5EF15 whole entry): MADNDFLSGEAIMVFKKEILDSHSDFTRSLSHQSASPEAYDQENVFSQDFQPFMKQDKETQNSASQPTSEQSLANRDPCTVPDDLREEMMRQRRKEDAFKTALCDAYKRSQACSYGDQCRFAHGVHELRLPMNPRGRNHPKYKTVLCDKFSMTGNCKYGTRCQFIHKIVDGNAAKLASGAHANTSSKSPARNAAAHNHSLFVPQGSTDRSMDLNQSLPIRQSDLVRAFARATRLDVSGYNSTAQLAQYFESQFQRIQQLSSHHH

[11] = viability loss in THP-1 monocytes – THP-1 cells, cytotoxicity control for Vif-APOBEC3G degradation inhibitor project, dose response (AID 1117359); type: functional; conditions: THP-1
Estrogen receptor beta = Estrogen receptor beta (Homo sapiens, UniProt Q92731);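 note: recombinant ER-beta bound to coactivator SRC1 peptide in presence of estradiol agonist; inhibitors block coactivator peptide binding and lower the FRET signal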
Estrogen receptor beta, sequence (Q92731 whole entry): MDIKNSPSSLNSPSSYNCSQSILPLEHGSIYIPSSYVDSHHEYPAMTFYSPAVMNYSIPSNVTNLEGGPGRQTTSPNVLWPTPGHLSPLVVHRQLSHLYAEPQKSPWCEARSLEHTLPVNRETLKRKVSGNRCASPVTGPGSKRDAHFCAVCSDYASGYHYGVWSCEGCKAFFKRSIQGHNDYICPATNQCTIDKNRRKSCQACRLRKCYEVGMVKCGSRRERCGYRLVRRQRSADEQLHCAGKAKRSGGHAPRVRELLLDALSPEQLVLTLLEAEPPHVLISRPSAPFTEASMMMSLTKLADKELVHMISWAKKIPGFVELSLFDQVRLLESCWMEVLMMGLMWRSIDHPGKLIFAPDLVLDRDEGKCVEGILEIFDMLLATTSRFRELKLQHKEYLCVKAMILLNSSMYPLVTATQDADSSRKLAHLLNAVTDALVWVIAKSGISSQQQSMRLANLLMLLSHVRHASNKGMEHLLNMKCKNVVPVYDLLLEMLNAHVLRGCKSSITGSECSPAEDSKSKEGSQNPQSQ

Estrogen receptor, sequence (P03372 whole entry): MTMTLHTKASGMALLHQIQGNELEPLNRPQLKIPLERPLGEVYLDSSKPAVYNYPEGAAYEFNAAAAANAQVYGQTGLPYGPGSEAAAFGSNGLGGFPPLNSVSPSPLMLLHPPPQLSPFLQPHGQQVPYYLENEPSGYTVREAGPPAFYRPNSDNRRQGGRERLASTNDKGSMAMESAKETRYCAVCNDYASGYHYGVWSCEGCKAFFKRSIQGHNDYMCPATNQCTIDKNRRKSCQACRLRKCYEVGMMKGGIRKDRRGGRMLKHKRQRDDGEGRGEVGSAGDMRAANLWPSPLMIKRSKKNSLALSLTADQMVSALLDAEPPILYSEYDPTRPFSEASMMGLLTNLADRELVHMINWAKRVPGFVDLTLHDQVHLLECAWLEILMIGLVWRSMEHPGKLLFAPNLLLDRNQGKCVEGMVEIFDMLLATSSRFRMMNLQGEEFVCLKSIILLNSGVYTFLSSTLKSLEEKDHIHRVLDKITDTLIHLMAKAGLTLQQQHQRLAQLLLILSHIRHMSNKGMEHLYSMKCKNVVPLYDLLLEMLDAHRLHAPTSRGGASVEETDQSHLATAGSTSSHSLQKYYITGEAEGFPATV

With `CSc1ccc(S(=O)(=O)Nc2c(C)cccc2C)cc1` the IC50 (Estrogen receptor) was > 50 µM (not active).
For `CN(C)c1ccc(NC(=O)Nc2cccc3ccccc23)cc1`, the IC50 (NADPH oxidase 1) was 0.464 µM (active).
In the case of `COc1cc(CNCCc2ccc(F)cc2)ccc1OCc1ccc(Cl)nc1`, the CC50 [1] is reported as 26.1 µM (active) and the EC50 [2] is reported as 1.88 µM (active).
With `C[C@@H]1CCCCO[C@@H](CN(C)Cc2ccc(Cl)c(Cl)c2)[C@H](C)CN([C@@H](C)CO)C(=O)c2cc(NC(=O)CCC(F)(F)F)ccc2O1` the AC50 [3] was 17.1 µM (active), the AC50 [4] was 27.3 µM (active) and the AC50 [5] was 23.4 µM (active). The AC50 (Paired box protein Pax-8) was 9.32 µM (active), the AC50 [6] was 16.1 µM (active) and the AC50 [7] was 21.9 µM (active).
With `CCOC(=O)c1ccc(N/C=C2\CCCCC2=O)cc1` the EC50 [8] was > 300 µM (not active), the IC50 [9] was > 100 µM (active) and the EC50 [10] was > 300 µM (not active).
With `CCN(c1ccccc1)S(=O)(=O)c1ccc(C(=O)NNC(=O)c2ccccc2F)cc1` the CC50 [11] was 23.5 µM (active).
With `Cc1cnc(C(=O)OCC(=O)c2csc(N3CCCCC3)n2)cn1` the IC50 (Estrogen receptor beta) was 5.81 µM (active).
